Data from patent US20250295646A1, “METHODS OF USE OF T-TYPE CALCIUM CHANNEL MODULATORS” (Praxis Precision Medicines, Inc., priority 2022, published 2025).

System: adult patients with essential tremor
Experiment: Example 16: accelerometer-based (Kinesia ONE) TETRAS upper limb score
Assay type: in vivo, human
Description: Accelerometer (Kinesia ONE) TETRAS assessments were generally consistent with those conducted at the clinic. Accelerometer upper limb score values are summarized for Part A, the open-label titration phase of Part B, and the randomized withdrawal phase of Part B in Table 37, Table 38, and Table 39, respectively

[1] = Day 1, Post - dose, Part B, Formula (I) arm (N = 4), baseline upper limb score ≥10
[2] = Day 7, Part B, Formula (I) arm (N = 4), baseline upper limb score ≥10
[3] = Day 21, Part B, Formula (I) arm (N = 4), baseline upper limb score ≥10
[4] = Day 42, Post - dose, Part B, Formula (I) arm (N = 4), baseline upper limb score ≥10
[5] = Day 42, Pre - dose, Part B, Formula (I) arm (N = 4), baseline upper limb score ≥10
[6] = Day 42 Post - dose (Randomization Baseline), Part B, Formula (I) arm (N = 4), baseline upper limb score ≥10
[7] = Day 56, Part B, Formula (I) arm (N = 4), baseline upper limb score ≥10
[8] = Day 56, Part B, baseline upper limb score ≥10
[9] = Day 70, Part B, Formula (I) arm (N = 4), baseline upper limb score ≥10
[10] = Day 70, Part B, baseline upper limb score ≥10
[11] = Part A (N = 7), Day 1, Post - dose
[12] = Part B Open-Label Titration (N = 17), Day 1, Post - dose
[13] = Part B Open-Label Titration (N = 17), Day 7
[14] = Part B Open-Label Titration (N = 17), Day 21

## CC(C)(C)NC(=O)CN1CCC(CNC(=O)c2cc(F)cc(Cl)c2)CC1 [compound of formula (I), N-((1-(2-(tert-butylamino)-2-oxoethyl)piperidin-4-yl)methyl)-3-chloro-5-fluorobenzamide]
[1]
  Accelerometer-Based Upper Limb Score, Change from Baseline, Mean (SD): −0.45 (1.476)
  Accelerometer-Based Upper Limb Score, Change from Baseline, Median: −0.83
  Accelerometer-Based Upper Limb Score, Mean (SD): 10.46 (2.611)
  Accelerometer-Based Upper Limb Score, Median: 11.50
  Accelerometer-Based Upper Limb Score, Percentage Change from Baseline in Tremor Amplitude, Mean (SD): −7.70 (24.390) %
  Accelerometer-Based Upper Limb Score, Percentage Change from Baseline in Tremor Amplitude, Median: −14.36%
[2]
  Accelerometer-Based Upper Limb Score, Change from Baseline, Mean (SD): −1.48 (0.814)
  Accelerometer-Based Upper Limb Score, Change from Baseline, Median: −1.85
  Accelerometer-Based Upper Limb Score, Mean (SD): 9.67 (3.386)
  Accelerometer-Based Upper Limb Score, Median: 11.10
  Accelerometer-Based Upper Limb Score, Percentage Change from Baseline in Tremor Amplitude, Mean (SD): −24.14 (12.303) %
  Accelerometer-Based Upper Limb Score, Percentage Change from Baseline in Tremor Amplitude, Median: −29.88%
[3]
  Accelerometer-Based Upper Limb Score, Change from Baseline, Mean (SD): −0.56 (1.181)
  Accelerometer-Based Upper Limb Score, Change from Baseline, Median: −0.55
  Accelerometer-Based Upper Limb Score, Mean (SD): 10.35 (3.035)
  Accelerometer-Based Upper Limb Score, Median: 11.48
  Accelerometer-Based Upper Limb Score, Percentage Change from Baseline in Tremor Amplitude, Mean (SD): −9.09 (19.622) %
  Accelerometer-Based Upper Limb Score, Percentage Change from Baseline in Tremor Amplitude, Median: −9.68%
[4]
  Accelerometer-Based Upper Limb Score, Change from Baseline, Mean (SD): −0.46 (1.605)
  Accelerometer-Based Upper Limb Score, Change from Baseline, Median: −0.23
  Accelerometer-Based Upper Limb Score, Percentage Change from Baseline in Tremor Amplitude, Mean (SD): −6.66 (25.539) %
  Accelerometer-Based Upper Limb Score, Percentage Change from Baseline in Tremor Amplitude, Median: −3.87%
[5]
  Accelerometer-Based Upper Limb Score, Change from Baseline, Mean (SD): 0.02 (1.702)
  Accelerometer-Based Upper Limb Score, Change from Baseline, Median: 0.05
  Accelerometer-Based Upper Limb Score, Mean (SD): 10.94 (0.884)
  Accelerometer-Based Upper Limb Score, Median: 11.23
  Accelerometer-Based Upper Limb Score, Percentage Change from Baseline in Tremor Amplitude, Mean (SD): 0.39 (28.120) %
  Accelerometer-Based Upper Limb Score, Percentage Change from Baseline in Tremor Amplitude, Median: 0.78%
[6]
  Accelerometer-Based Upper Limb Score, Mean (SD): 10.45 (1.616)
  Accelerometer-Based Upper Limb Score, Median: 10.88
[7]
  Accelerometer-Based Upper Limb Score, Change from Baseline, Mean (SD): −0.35 (3.213)
  Accelerometer-Based Upper Limb Score, Change from Baseline, Median: 0.62
  Accelerometer-Based Upper Limb Score, Change from Randomization, LS Mean (SE): 0.071 (1.3594)
  Accelerometer-Based Upper Limb Score, Change from Randomization, Mean (SD): 0.11 (1.662)
  Accelerometer-Based Upper Limb Score, Change from Randomization, Median: 0.70
  Accelerometer-Based Upper Limb Score, LS Mean Percentage Change in Tremor Amplitude from Randomization: 1.4%
  Accelerometer-Based Upper Limb Score, Mean (SD): 10.56 (2.093)
  Accelerometer-Based Upper Limb Score, Median: 10.88
  Accelerometer-Based Upper Limb Score, Percentage Change from Baseline in Tremor Amplitude, Mean (SD): −1.64 (43.539) %
  Accelerometer-Based Upper Limb Score, Percentage Change from Baseline in Tremor Amplitude, Median: 9.78%
  Accelerometer-Based Upper Limb Score, Percentage Change from Randomization in Tremor Amplitude, Mean (SD): 2.97 (26.670) %
  Accelerometer-Based Upper Limb Score, Percentage Change from Randomization in Tremor Amplitude, Median: 12.37%
[8]
  Accelerometer-Based Upper Limb Score, Change from Randomization, LS Mean (SE) for Difference (Formula (I) - Placebo): −2.321 (1.8339)
  Accelerometer-Based Upper Limb Score, Change from Randomization, p-value for LS Mean Difference (Formula (I) - Placebo): 0.2614
  Accelerometer-Based Upper Limb Score, LS Mean Percentage Change Difference (Formula (I) - Placebo): −35.5%
[9]
  Accelerometer-Based Upper Limb Score, Change from Baseline, Mean (SD): 2.02 (3.694)
  Accelerometer-Based Upper Limb Score, Change from Baseline, Median: 0.35
  Accelerometer-Based Upper Limb Score, Change from Randomization, LS Mean (SE): 3.223 (1.4066)
  Accelerometer-Based Upper Limb Score, Change from Randomization, Mean (SD): 3.02 (2.533)
  Accelerometer-Based Upper Limb Score, Change from Randomization, Median: 2.00
  Accelerometer-Based Upper Limb Score, LS Mean Percentage Change in Tremor Amplitude from Randomization: 46.1%
  Accelerometer-Based Upper Limb Score, Mean (SD): 13.17 (0.862)
  Accelerometer-Based Upper Limb Score, Median: 13.00
  Accelerometer-Based Upper Limb Score, Percentage Change from Baseline in Tremor Amplitude, Mean (SD): 22.11 (42.165) %
  Accelerometer-Based Upper Limb Score, Percentage Change from Baseline in Tremor Amplitude, Median: 6.50%
  Accelerometer-Based Upper Limb Score, Percentage Change from Randomization in Tremor Amplitude, Mean (SD): 39.81 (24.948) %
  Accelerometer-Based Upper Limb Score, Percentage Change from Randomization in Tremor Amplitude, Median: 31.87%
[10]
  Accelerometer-Based Upper Limb Score, Change from Randomization, LS Mean (SE) for Difference (Formula (I) - Placebo): 0.341 (1.8367)
  Accelerometer-Based Upper Limb Score, Change from Randomization, p-value for LS Mean Difference (Formula (I) - Placebo): 0.8597
  Accelerometer-Based Upper Limb Score, LS Mean Percentage Change Difference (Formula (I) - Placebo): 3.6%
[11]
  Accelerometer-Based Upper Limb Score, Change from Baseline, Median: 0.20
  Accelerometer-Based Upper Limb Score, observed, Median: 9.40
  Accelerometer-based Upper Limb Score, Change from Baseline, LS Mean: 0.417
  Accelerometer-based Upper Limb Score, Change from Baseline, Mean: 0.42
  Accelerometer-based Upper Limb Score, observed, Mean: 10.93
  LS Mean Percentage Change in Tremor Amplitude: 7.7%
  Percentage Change from Baseline in Tremor Amplitude, Mean: 7.49%
  Percentage Change from Baseline in Tremor Amplitude, Median: 3.76%
Part A (N = 7), Day 7
  Accelerometer-Based Upper Limb Score, Change from Baseline, Median: −0.40
  Accelerometer-Based Upper Limb Score, observed, Median: 10.38
  Accelerometer-based Upper Limb Score, Change from Baseline, LS Mean: −1.100
  Accelerometer-based Upper Limb Score, Change from Baseline, Mean: −1.10
  Accelerometer-based Upper Limb Score, observed, Mean: 9.31
  LS Mean Percentage Change in Tremor Amplitude: −19.0%
  Percentage Change from Baseline in Tremor Amplitude, Mean: −15.89%
  Percentage Change from Baseline in Tremor Amplitude, Median: −7.39%
Part A (N = 7), Day 14
  Accelerometer-Based Upper Limb Score, Change from Baseline, Median: −1.15
  Accelerometer-Based Upper Limb Score, observed, Median: 8.30
  Accelerometer-based Upper Limb Score, Change from Baseline, LS Mean: −1.300
  Accelerometer-based Upper Limb Score, Change from Baseline, Mean: −1.30
  Accelerometer-based Upper Limb Score, observed, Mean: 8.23
  LS Mean Percentage Change in Tremor Amplitude: −22.1%
  Percentage Change from Baseline in Tremor Amplitude, Mean: −20.27%
  Percentage Change from Baseline in Tremor Amplitude, Median: −19.80%
Part A (N = 7), Day 21
  Accelerometer-Based Upper Limb Score, Change from Baseline, Median: −1.05
  Accelerometer-Based Upper Limb Score, observed, Median: 10.98
  Accelerometer-based Upper Limb Score, Change from Baseline, LS Mean: −0.117
  Accelerometer-based Upper Limb Score, Change from Baseline, Mean: −0.12
  Accelerometer-based Upper Limb Score, observed, Mean: 10.11
  LS Mean Percentage Change in Tremor Amplitude: −2.2%
  Percentage Change from Baseline in Tremor Amplitude, Mean: −2.75%
  Percentage Change from Baseline in Tremor Amplitude, Median: −18.25%
[12]
  Accelerometer-Based Upper Limb Score, Change from Baseline, LS Mean (SE): −0.633 (0.3456)
  Accelerometer-Based Upper Limb Score, Change from Baseline, Mean (SD): −0.56 (1.700)
  Accelerometer-Based Upper Limb Score, Change from Baseline, Median: −0.60
  Accelerometer-Based Upper Limb Score, observed, Mean (SD): 9.67 (3.109)
  Accelerometer-Based Upper Limb Score, observed, Median: 10.50
  LS Mean Percentage Change in Tremor Amplitude: −11.4%
  Percentage Change from Baseline in Tremor Amplitude, Mean (SD): −8.42 (25.587) %
  Percentage Change from Baseline in Tremor Amplitude, Median: −10.87%
[13]
  Accelerometer-Based Upper Limb Score, Change from Baseline, LS Mean (SE): −1.235 (0.3722)
  Accelerometer-Based Upper Limb Score, Change from Baseline, Mean (SD): −1.15 (2.151)
  Accelerometer-Based Upper Limb Score, Change from Baseline, Median: −1.20
  Accelerometer-Based Upper Limb Score, observed, Mean (SD): 8.91 (3.335)
  Accelerometer-Based Upper Limb Score, observed, Median: 8.85
  LS Mean Percentage Change in Tremor Amplitude: −21.1%
  Percentage Change from Baseline in Tremor Amplitude, Mean (SD): −15.44 (29.596) %
  Percentage Change from Baseline in Tremor Amplitude, Median: −19.95%
[14]
  Accelerometer-Based Upper Limb Score, Change from Baseline, LS Mean (SE): −1.835 (0.4715)
  Accelerometer-Based Upper Limb Score, Change from Baseline, Mean (SD): −1.57 (2.142)
  Accelerometer-Based Upper Limb Score, Change from Baseline, Median: −1.00
  Accelerometer-Based Upper Limb Score, observed, Mean (SD): 9.09 (2.989)
  Accelerometer-Based Upper Limb Score, observed, Median: 8.95
  LS Mean Percentage Change in Tremor Amplitude: −29.7%
  Percentage Change from Baseline in Tremor Amplitude, Mean (SD): −21.20 (27.676) %
